Experiments:
[1] = tested on: gut flora (Akkermansia bacteria, Firmicutes bacteria, Bacteroidetes bacteria); assay: Gut flora improving action in high fat diet mouse model, 16S rRNA gene analysis of feces after eight weeks of intake; format: in vivo, Mice (C57BL/6J); conditions: high fat diet mice; for abundance ratio of Firmicutes bacteria to Bacteroidetes bacteria: eight weeks, High fat diet group 7.4, Regular diet group 4.2; for abundance ratio of Firmicutes bacteria to Bacteroidetes bacteria / abundance proportion of Akkermansia bacteria in the gut flora: feces; for change in the abundance ratio of Firmicutes bacteria to Bacteroidetes bacteria, in words: oral intake for eight weeks; for change in the abundance ratio of Firmicutes bacteria to Bacteroidetes bacteria, in words / abundance proportion of Akkermansia bacteria in the gut flora: compared to High fat diet group; for abundance proportion of Akkermansia bacteria in the gut flora: oral intake once a day for eight weeks
From the text: The influence of xanthohumol and isoxanthohumol on the gut flora was examined by the following procedure using a high fat diet mouse model. […] The dosage is an intake (mg) of the test substance per kg body weight per day. In the table, “Regular diet” is control diet “[…]” (Research Diets), and “60 kcal % High-fat diet” is very high-fat diet “D12492” (Research Diets); “Catechins” is a preparation “Polyphenon […]” (product name, Mitsui Morin Co., Ltd.). Catechins were used as a positive control. Xanthohumol and isoxanthohumol were the standard samples (purity of 95% or higher) obtained in Preparation Example 1. [table] Mice (C57BL/6J, male, 7 weeks of age, CLEA Japan, Inc.) were purchased, and they were quarantined and acclimatized for one week. […] The selected animals were divided into groups (n=8 in each group) in the group structure shown in Table 1 by the stratified continuous randomization method based on body weight at the end of the acclimatization period. They were fed with free access to specific basic feed and water. The test substance was orally fed once a day for eight weeks. A dosing solution containing a mixture of the test substance and a solvent was used to administer the test substance. The solvent was a 0.5 wt % sodium carboxymethylcellulose (CMC) aqueous solution. The volume of the dosing solution to be administered to each mouse was 10 mL/kg. The amount of the test substance and the volume of the solution were calculated based on the latest body weight. 16S rRNA gene analysis was performed on feces (fresh feces) collected eight weeks after the start of intake of the test substance. 16S rRNA gene analysis was performed by the method described in Examples of JP 2018-8911 A. The abundance proportions (abundance ratio) of intestinal bacteria found in the feces were determined by the gene analysis as the abundance ratio of bacteria in the gut flora. FIG. 1 is a graph showing the abundance proportion (group average) of bacteria in the gut flora of each group. The abundance proportion shown in FIG. 1 is the ratio (occupancy) of each species of bacteria to the total bacterial count in the feces. Verrucomicrobia in FIG. 1 is a higher rank to which Akkermansia bacteria belong. All the Verrucomicrobia bacteria in this analysis were Akkermansia bacteria. The dosage (mg/kg) of isoxanthohumol (IXN) and xanthohumol (XN) in FIG. 1 is the intake (mg) of the test substance per kg body weight per day. […] The abundance ratio of Firmicutes bacteria to Bacteroidetes bacteria was as follows: 4.2 in Regular diet group; 7.4 in High fat diet group; 1.7 in Catechins group; 3.2 in Xanthohumol (60 mg/kg) group; 6.0 in Isoxanthohumol (60 mg/kg) group (Group No. 5); and 2.4 in Isoxanthohumol (180 mg/kg) group (Group No. 6).

[2] = tested on: gut flora (Akkermansia bacteria); assay: Example 2: 16S rRNA gene analysis of cecal contents two weeks after the start of intake; format: in vivo; conditions: 60 mg/kg body weight per day, compared to High fat diet group
Method: 16S rRNA gene analysis was performed on feces (fresh feces) collected eight weeks after the start of intake of the test substance. 16S rRNA gene analysis was performed by the method described in Examples of JP 2018-8911 A. The abundance proportions (abundance ratio) of intestinal bacteria found in the feces were determined by the gene analysis as the abundance ratio of bacteria in the gut flora.
Another test was performed using isoxanthohumol as the test substance, with partial modification in the group structure and dosage design. In this test, the cecal contents were collected two weeks after the start of intake of the test substance, and 16S rRNA gene analysis was performed in the same manner as described above.

[3] = 100° C.; cited from earlier work

Compound: COc1cc(O)c(CC=C(C)C)c2c1C(=O)CC(c1ccc(O)cc1)O2 (stereo not drawn) [Isoxanthohumol]
- abundance ratio of Firmicutes bacteria to Bacteroidetes bacteria ([1]; 60 mg/kg/day oral): 6.0
- abundance ratio of Firmicutes bacteria to Bacteroidetes bacteria ([1]; 180 mg/kg/day oral): 2.4
- change in the abundance ratio of Firmicutes bacteria to Bacteroidetes bacteria, in words [1]: decrease
- abundance proportion of Akkermansia bacteria in the gut flora [1]: increase
- abundance ratio of Akkermansia bacteria in the gut flora [2]: increase
- stability at high temperature [3]: stable

Compound: COc1cc(O)c(CC=C(C)C)c(O)c1C(=O)/C=C/c1ccc(O)cc1 [Xanthohumol]
- abundance ratio of Firmicutes bacteria to Bacteroidetes bacteria ([1]; 60 mg/kg/day oral): 3.2
- change in the abundance ratio of Firmicutes bacteria to Bacteroidetes bacteria, in words [1]: decrease
- abundance proportion of Akkermansia bacteria in the gut flora [1]: increase

Reference: patent publication US20210322369A1, “COMPOSITION FOR IMPROVING INTESTINAL ENVIRONMENT AND METHOD FOR IMPROVING INTESTINAL FLORA” (SUNTORY HOLDINGS LIMITED, priority 2018, published 2021)
